Values after ≈ are worked out from the molar mass of the structure shown.
Key:
[1] = Metabolic stability in mouse hepatocytes assessed as half life; type: ADME, cell-based, Hepatocyte
[2] = Metabolic stability in mouse liver microsomes assessed as intrinsic clearance per mg protein; type: ADME, Microsome; details: read-out: CLH
[3] = Metabolic stability in mouse liver microsomes assessed as half life; type: ADME, Microsome
[4] = Semi-thermodynamic solubility of compound at pH 7.4; type: physicochemical; details: buffer, read-out: Therm_solubility
[5] = Metabolic stability in mouse hepatocytes assessed as intrinsic clearance per 10^6 cells; type: ADME, cell-based, Hepatocyte; details: read-out: CLH
Utrophin (Mus musculus) = Utrophin (Mus musculus) (UniProt E9Q6R7); test: Modulation of mouse Utrophin in mouse H2K mdx cells assessed as fold increase in utrophin protein level at 0.1 to 10 uM incubated for 24 hrs by Western blot analysis; type: cell-based; details: filed as modulator, dose 0.1-10 µM
Chain of Utrophin (Mus musculus) (E9Q6R7 as listed by the source): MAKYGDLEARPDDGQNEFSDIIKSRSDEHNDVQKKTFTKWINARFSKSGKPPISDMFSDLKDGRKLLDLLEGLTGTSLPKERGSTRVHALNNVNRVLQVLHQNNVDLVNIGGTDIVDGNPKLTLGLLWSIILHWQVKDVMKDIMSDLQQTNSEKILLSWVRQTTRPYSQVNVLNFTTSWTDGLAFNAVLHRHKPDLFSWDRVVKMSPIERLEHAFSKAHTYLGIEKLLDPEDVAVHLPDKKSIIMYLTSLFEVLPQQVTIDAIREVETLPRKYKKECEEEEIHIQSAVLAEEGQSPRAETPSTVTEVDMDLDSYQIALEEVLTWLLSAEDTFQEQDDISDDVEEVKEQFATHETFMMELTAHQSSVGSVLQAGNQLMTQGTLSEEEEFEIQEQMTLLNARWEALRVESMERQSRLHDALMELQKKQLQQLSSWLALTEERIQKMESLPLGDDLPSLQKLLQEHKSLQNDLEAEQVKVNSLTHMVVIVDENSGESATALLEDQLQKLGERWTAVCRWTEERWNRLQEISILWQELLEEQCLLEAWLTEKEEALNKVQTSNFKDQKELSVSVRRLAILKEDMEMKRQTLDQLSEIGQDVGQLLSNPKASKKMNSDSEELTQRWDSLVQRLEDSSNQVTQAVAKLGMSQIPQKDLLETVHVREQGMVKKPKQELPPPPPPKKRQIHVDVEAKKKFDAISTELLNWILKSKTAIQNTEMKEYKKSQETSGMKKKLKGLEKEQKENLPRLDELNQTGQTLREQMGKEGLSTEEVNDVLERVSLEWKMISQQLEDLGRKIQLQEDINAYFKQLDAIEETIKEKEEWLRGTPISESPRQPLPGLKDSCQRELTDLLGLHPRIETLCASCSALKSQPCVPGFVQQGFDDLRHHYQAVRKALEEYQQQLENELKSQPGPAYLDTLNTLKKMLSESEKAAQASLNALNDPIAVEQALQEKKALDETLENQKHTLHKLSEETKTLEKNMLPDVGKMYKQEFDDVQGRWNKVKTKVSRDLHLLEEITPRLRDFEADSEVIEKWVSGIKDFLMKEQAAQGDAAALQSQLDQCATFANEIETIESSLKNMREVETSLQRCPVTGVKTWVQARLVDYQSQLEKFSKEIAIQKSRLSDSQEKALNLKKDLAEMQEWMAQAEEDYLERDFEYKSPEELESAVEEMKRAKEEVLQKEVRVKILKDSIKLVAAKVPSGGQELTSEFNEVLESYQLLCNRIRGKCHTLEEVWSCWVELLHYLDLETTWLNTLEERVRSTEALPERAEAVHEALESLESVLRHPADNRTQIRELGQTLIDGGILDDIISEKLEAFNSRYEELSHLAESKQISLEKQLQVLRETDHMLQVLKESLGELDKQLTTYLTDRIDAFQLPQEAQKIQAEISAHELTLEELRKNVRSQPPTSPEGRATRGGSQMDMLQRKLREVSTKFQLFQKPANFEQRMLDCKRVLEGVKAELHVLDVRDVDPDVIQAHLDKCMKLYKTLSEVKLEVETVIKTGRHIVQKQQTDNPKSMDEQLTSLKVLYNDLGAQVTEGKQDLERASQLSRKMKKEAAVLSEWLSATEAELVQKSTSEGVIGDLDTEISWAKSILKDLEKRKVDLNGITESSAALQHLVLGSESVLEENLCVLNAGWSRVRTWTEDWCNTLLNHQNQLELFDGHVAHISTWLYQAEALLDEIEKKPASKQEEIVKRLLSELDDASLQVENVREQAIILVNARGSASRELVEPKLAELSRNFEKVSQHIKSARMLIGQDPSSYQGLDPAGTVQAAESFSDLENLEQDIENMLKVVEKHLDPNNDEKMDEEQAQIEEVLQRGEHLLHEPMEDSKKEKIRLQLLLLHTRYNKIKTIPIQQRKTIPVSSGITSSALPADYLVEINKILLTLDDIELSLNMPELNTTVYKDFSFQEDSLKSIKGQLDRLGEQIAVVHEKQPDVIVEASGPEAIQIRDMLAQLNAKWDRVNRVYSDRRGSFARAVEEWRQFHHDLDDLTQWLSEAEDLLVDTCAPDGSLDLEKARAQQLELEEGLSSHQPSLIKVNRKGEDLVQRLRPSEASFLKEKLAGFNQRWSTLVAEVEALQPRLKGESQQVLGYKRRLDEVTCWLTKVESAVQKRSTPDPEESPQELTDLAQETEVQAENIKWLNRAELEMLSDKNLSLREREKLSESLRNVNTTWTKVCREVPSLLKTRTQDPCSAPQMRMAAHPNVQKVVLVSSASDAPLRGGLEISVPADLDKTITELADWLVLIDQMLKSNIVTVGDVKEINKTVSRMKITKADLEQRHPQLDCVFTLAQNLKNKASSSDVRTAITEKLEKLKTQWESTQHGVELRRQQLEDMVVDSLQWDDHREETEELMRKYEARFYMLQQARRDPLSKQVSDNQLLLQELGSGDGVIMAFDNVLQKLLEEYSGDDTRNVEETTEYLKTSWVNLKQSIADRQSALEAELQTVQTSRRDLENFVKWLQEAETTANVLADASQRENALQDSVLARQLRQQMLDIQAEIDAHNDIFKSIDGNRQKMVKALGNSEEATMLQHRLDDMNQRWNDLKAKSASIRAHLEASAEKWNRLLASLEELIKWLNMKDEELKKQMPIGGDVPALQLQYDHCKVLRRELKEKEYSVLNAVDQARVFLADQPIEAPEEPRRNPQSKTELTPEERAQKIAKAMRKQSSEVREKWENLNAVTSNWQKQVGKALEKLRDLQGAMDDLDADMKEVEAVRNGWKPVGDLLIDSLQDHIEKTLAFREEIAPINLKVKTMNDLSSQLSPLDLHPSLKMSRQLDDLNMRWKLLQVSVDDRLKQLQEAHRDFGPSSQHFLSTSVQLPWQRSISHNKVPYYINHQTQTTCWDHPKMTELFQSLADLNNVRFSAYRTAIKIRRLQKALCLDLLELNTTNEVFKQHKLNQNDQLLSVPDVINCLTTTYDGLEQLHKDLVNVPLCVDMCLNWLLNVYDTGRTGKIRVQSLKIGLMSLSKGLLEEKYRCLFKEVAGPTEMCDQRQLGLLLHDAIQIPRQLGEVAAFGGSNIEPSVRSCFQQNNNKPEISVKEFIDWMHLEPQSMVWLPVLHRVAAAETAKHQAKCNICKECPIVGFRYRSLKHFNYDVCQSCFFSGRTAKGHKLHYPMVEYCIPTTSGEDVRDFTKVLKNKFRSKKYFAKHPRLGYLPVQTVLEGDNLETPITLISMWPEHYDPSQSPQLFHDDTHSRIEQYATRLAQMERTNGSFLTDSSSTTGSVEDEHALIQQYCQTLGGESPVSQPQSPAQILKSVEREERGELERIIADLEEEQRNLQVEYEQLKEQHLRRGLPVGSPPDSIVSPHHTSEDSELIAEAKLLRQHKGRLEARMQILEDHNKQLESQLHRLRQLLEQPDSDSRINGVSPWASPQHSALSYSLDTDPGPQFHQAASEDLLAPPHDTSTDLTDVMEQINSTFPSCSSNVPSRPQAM

With `NNC(=O)c1nc(-c2ccccc2)cc(-c2ccc(C(F)(F)F)nc2)n1` the half-life [1] was 1.77 h, the microsomal CLint [2] was 1.53 µL/min/mg and the half-life [3] was 7.57 h. For the same compound, the solubility thermodynamic [4] was 200 µM (≈ 71.9 µg/mL), the hepatocyte CLint [5] was 13 µL/min/1e6 cells and the FC (Utrophin (Mus musculus)) was 2.5.

Reference: ChEMBL document CHEMBL5113458, “Structure-activity relationships of 2-pyrimidinecarbohydrazides as utrophin modulators for the potential treatment of Duchenne muscular dystrophy” (Bioorg Med Chem, 2022)
